Drawing on ChEMBL document CHEMBL3580538, “Cytotoxic and antiviral nitrobenzoyl sesquiterpenoids from the marine-derived fungus Aspergillus ochraceus Jcma1F17” (Medchemcomm, 2014), this text covers IC50 for 3 compounds.

Assay [1] concerns NCI-H1975. In words: Cytotoxicity against human NCI-H1975 cells assessed as cell viability after 72 hrs by CCK8 assay. The conditions noted are these: NCI-H1975, 72 h. The format is functional, cell-based. For orientation: Formazan colour is commonly taken as a measure of viable cells.
Assay [2] deals with U-937. The experiment in a line: Cytotoxicity against human U937 cells assessed as cell viability after 72 hrs by CCK8 assay. The class given is functional, cell-based. The conditions noted are these: U-937, 72 h.
The subject of assay [3] is K562. The experiment in a line: Cytotoxicity against human K562 cells assessed as cell viability after 72 hrs by CCK8 assay. The class given is functional, cell-based. The conditions noted are these: K562, 72 h.
Assay [4] in a line: Cytotoxicity against human BGC823 cells assessed as cell viability after 72 hrs by CCK8 assay. The class given is functional, cell-based. Conditions: BGC-823, 72 h; call rule not given here.
The subject of assay [5] is HeLa. The experiment in a line: Cytotoxicity against human HeLa cells assessed as cell viability after 72 hrs by CCK8 assay. The format is functional, cell-based.
Assay [6] has as its system HL-60. The experiment in a line: Cytotoxicity against human HL60 cells assessed as cell viability after 72 hrs by CCK8 assay. The conditions noted are these: HL-60, 72 h. The format is functional, cell-based.
Assay [7] is described as follows: Cytotoxicity against human HuH7 cells assessed as cell viability after 72 hrs by CCK8 assay. The format is functional, cell-based. The conditions noted are these: Huh-7, 72 h.
Assay [8] deals with Enterovirus. In words: Antiviral activity against EV71 infected in african green monkey Vero cells assessed as reduction in virus-induced cytopathic effect after 72 to 96 hrs by CCK8 assay. The conditions noted are these: Enterovirus, 71, Vero. The format is functional, organism-based.
Assay [9] has as its system Mycobacterium tuberculosis. In words: Antituberculosis activity against Mycobacterium tuberculosis H37Ra after 3 days by autoluminescent assay. The format is functional, organism-based.
A short description of assay [10]: Antiviral activity against Influenza A virus A/Hong Kong/8/68 H3N2 infected in MDCK cells assessed as reduction in virus-induced cytopathic effect after 3 days by CCK8 assay. The class given is functional, cell-based, Influenza A virus (A/Hong Kong/8/1968([…])). The conditions noted are these: 72 h. In general terms: Cytopathic effects are the visible damage that an infection or toxin causes in cultured cells.

Assay [11] concerns MOLT-4. In words: Cytotoxicity against human MOLT4 cells assessed as cell viability after 72 hrs by CCK8 assay. Conditions: MOLT-4, 72 h. The format is functional, cell-based.
Assay [12] concerns MCF7. The experiment in a line: Cytotoxicity against human MCF7 cells assessed as cell viability after 72 hrs by CCK8 assay. The class given is functional, cell-based. Conditions: MCF7, 72 h.
Assay [13] deals with A549. In words: Cytotoxicity against human A549 cells assessed as cell viability after 72 hrs by CCK8 assay. The class given is functional, cell-based. Conditions: A549, 72 h.

One may read the IC50 as the midpoint of a concentration-inhibition curve. Take `CC(/C=C/C(=O)NO)=C\[C@@H](C)C(=O)c1ccc(N(C)C)cc1` [TRICHOSTATIN]: the IC50 was 0.09 µM in assay [1]; 0.05 µM in [2]; 0.16 µM in assay [3]; 0.08 µM in assay [4]; 0.1 µM in assay [5]; 0.03 µM in [6]. In addition, the IC50 in assay [7] is 0.09 µM; in [8], 0.6 µM; in assay [9], “Not Active”; in [10], 0.008 µM.

For the compound `C[C@]1(CO)CCC[C@@]2(C)[C@H]1[C@H](OC(=O)c1ccc([N+](=O)[O-])cc1)C=C1C(=O)OC[C@@]12O`, the IC50 in assay [1] is 4.63 µM; in [2], 3.97 µM; in [3], 4.76 µM; in assay [4] it was 2.78 µM; in assay [11], 2.11 µM; in [12] it was 6.08 µM. In addition, the IC50 was 2.86 µM in [13]; 6.35 µM in assay [5]; 2.34 µM in assay [6]; 2.35 µM in assay [7]; 50 µM in [8]; “Not Active” in assay [9]. Further, the IC50 in assay [10] was determined as 50 µM.

`C[C@]1(COC(=O)c2ccc([N+](=O)[O-])cc2)CCC[C@@]2(C)[C@H]1[C@H](O)C=C1C(=O)OC[C@@]12O`: the IC50 in assay [1] is 2.08 µM; in [2], 1.95 µM; in assay [3], 4.33 µM; in [4], 2.32 µM; in assay [11] it was 2.39 µM; in assay [12], 4.25 µM. In addition, the IC50 in assay [13] was 2.41 µM; in [5], 6.12 µM; in assay [6], 2.44 µM; in [7], 3.28 µM; in assay [8], 9.4 µM; in [9] it was “Not Active”. In addition, in assay [10], the IC50 turned out to be 17 µM.
